Laboratory results reported in patent US9164090B2, “Methods for detecting molecular interactions” (Korea Advanced Institute of Science and Technology, priority 2007, dated 2015).

Key:
FKBP protein = biological target: T1, FKBP protein (Homo sapiens, UniProt P62942); test: Formation of nano-assembly matrices of FKBP (wild type)-ferritin by AP1510 in Hela cells; format: cell-based; conditions: 1 μM AP1510
T1 construct: fluorescent protein (mRFP); ferritin (FT); expressed in transfected cells; host or cells: HeLa
T1 sequence (P62942 whole entry): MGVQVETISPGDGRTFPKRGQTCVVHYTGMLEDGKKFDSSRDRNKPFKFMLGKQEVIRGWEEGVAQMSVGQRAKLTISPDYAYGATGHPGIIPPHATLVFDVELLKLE
Description: In this experiment, a FKBP (wild type) protein was used as a material for inducing the formation of nano-assembly matrices, while an AP1510 compound was used as a material for mediating the binding between FKBP proteins. The AP1510 compound is a FK506-like compound and is a mediator (regulator) material, which has two moieties capable of binding to the FKBP protein, linked with each other by a linker, such that it can interact simultaneously with two molecules of the FKBP protein.
Two FKBP (wild type) proteins were continuously fused to ferritin and expressed in Hela cells. The cells were treated with 1 μM of the AP1510 compound, which is an FKBP interaction mediator (regulator) material, and the formation of nano-assembly matrices within 1 hour was observed through In-Cell Analyzer 1000 (GE) (FIG. 35). After the formation of the nano-assembly matrices was induced for 3 hours, the cells were treated with 250 nM of Rapamycin for 1 hour.
For the case where mRFP was attached to the FKBP protein in Example 7, various fluorescent proteins, such as ECFP, TagCFP and mTFP1, were attached to the FKBP protein to examine the effect of the AP1510 compound on the induction of formation of nano-assembly matrices.
FKBP was fused to the ferritin protein, and the three different fluorescent proteins were attached between FKBP and ferritin, and then expressed in Hela cells. […]

IkBα and IKKb = test: Formation of nano-assembly matrix by IKKb-IkBα interaction on physiological signal in Hela cells; format: cell-based; conditions: TNFa treatment; FRB-ECFP-FT, IKKb-mRFP-FKBP and IkBα-YFP-FKBP
Description: In another example, IKKb-IkBα proteins were used as prey-bait, and TNFa was used as a material for mediating (regulating) the interaction between them. The IkBα and IKKb proteins interact with each other, only when a physiological external signal of TNFa is transferred to cells. The interaction between phosphorylase (such as IKKb) and IkBα that is the substrate thereof is known as one of the weakest interactions in cells. The recombinant genes FRB-ECFP-FT, IKKb-mRFP-FKBP and IkBα-YFP-FKBP were introduced together into Hela cells, and each of the fusion proteins was expressed in the cells.

| time to formation of nano-assembly matrices (FKBP protein; two FKBP (wild type) fused to ferritin) [h] | Compound | induction of formation of nano-assembly matrices depending on fluorescent protein (FKBP protein; ECFP, TagCFP or mTFP1 between FKBP and ferritin) | formation of nano-assembly matrix (IkBα and IKKb) |
| --- | --- | --- | --- |
| ≤ 1 | CCC(C)(C)C(=O)C(=O)N1CCCC[C@H]1C(=O)O[C@H](CCc1ccc(OC)c(OC)c1)c1cccc(OCC(=O)NCCNC(=O)COc2cccc([C@@H](CCc3ccc(OC)c(OC)c3)OC(=O)[C@@H]3CCCCN3C(=O)C(=O)C(C)(C)CC)c2)c1 [AP1510] | induced more effectively in the case of TagCFP-mTFP1 and mTFP1 than the case of ECFP |  |
|  | TNFa |  | a large nano-assembly matrix was formed in cells |
